Experimental data from PMC5773577, “Novel Miniature Membrane Active Lipopeptidomimetics against Planktonic and Biofilm Embedded Methicillin-Resistant Staphylococcus aureus” (Scientific Reports, 2018).
≈ marks a conversion by molar mass, not a printed value. Residues, ends and D or L forms follow the SMILES beside them.

Legend:
[1] = system: S. aureus (ISP479R); format: cell-based, Staphylococcus aureus; conditions: MHB, 2–5 × 10^5 CFU/mL, 16–18 h, 37 °C, OD600
Method: (§1) The antibacterial activity was evaluated as MIC using slight modifications to a serial broth micro dilution method as reported previously[66],[67]. Briefly, to each treatment well of the 96-well plate (Corning Incorporated, USA) 10 μL of peptidomimetic/antibiotic was added and subsequently diluted serial 2-fold in 0.2% BSA (in 0.01% acetic acid). Then to each well of the first 11 columns 100 μL of mid-log phase bacterial suspension in MHB medium was added to get 2–5 × 10^5 CFU/mL. Cultures without test peptidomimetics/antibiotics were used as growth control. Uninoculated MHB medium was used as negative control. The microtitre plates were incubated overnight with agitation (180 rpm) at 37 °C. After 16–18 h incubation, absorbance was read at 600 nm using an ELISA plate reader (Molecular Devices, Sunnyvale, CA, USA). The experiments were carried out in duplicate on at least three different days.

[2] = system: mouse red blood cells (RBCs); test: Hemolysis assay; format: cell-based; conditions: mouse RBC, up to 250 μg/mL, 1 h, 37 °C, PBS pH 7.4; 0.1% Triton X-100 = 100%; data not shown
Method: For the experiment, a previously defined procedure was used with slight modifications[67],[68]. Briefly, blood was withdrawn from mice on the day of the experiment. After washing red blood cells (RBC) twice with phosphate buffer saline (PBS: 35 mM sodium phosphate, 150 mM NaCl, pH 7.4), a 4% v/v suspension of RBC was prepared in the same buffer. In a 96-well plate, serial two-fold dilutions of desired concentrations of peptidomimetics (in PBS) were prepared (100 μL) in duplicate. To each well 100 μL of 4% v/v RBC suspension was added. The plates were incubated at 37 °C for 1 h. After 1 h, the plates were centrifuged at 1500 rpm for 10 min and 20 μL of the supernatant was transferred to a fresh 96-well plate containing 80 μL PBS. The hemoglobin release was quantified by measuring OD414 in an ELISA plate reader (Molecular Devices, Sunnyvale, CA, USA). Hemoglobin release from 0.1% Triton X-100 treated RBC was set as 100% lysis (Amax) while as negative control RBC suspended in PBS alone was used (APBS). Percentage hemolysis was calculated using the following equation:1 %hemolysis=[(Asample−APBS)/(Amax−APBS)]×100

[3] = system: S. aureus (ISP479C); test: microbe, parasite or virus in culture; format: cell-based, Staphylococcus aureus; conditions: MHB, 2–5 × 10^5 CFU/mL, 16–18 h, 37 °C, OD600
Method: as §1

[4] = system: S. aureus (ATCC 25923); test: microbe, parasite or virus in culture; format: cell-based, Staphylococcus aureus; conditions: MHB, 2–5 × 10^5 CFU/mL, 16–18 h, 37 °C, OD600
Method: as §1

[5] = system: S. aureus (ATCC 29213); test: microbe, parasite or virus in culture; format: cell-based, Staphylococcus aureus; conditions: MHB, 2–5 × 10^5 CFU/mL, 16–18 h, 37 °C, OD600, duplicate, at least three days
Method: as §1

[6] = system: MRSA (ATCC 33591); test: microbe, parasite or virus in culture; format: cell-based, Staphylococcus aureus; conditions: MHB, 2–5 × 10^5 CFU/mL, 16–18 h, 37 °C, OD600
Method: as §1

[7] = system: E. faecium (E-447), clinical isolate of vancomycin-resistant E. faecium; test: organism not typed; format: cell-based, Enterococcus faecium; conditions: VRE clinical isolate E-447; MHB, 2–5 × 10^5 CFU/mL, 16–18 h, 37 °C
Method: as §1

[8] = system: E. faecium (E-7846), clinical isolate of vancomycin-resistant E. faecium; test: organism not typed; format: cell-based, Enterococcus faecium; conditions: VRE clinical isolate E-7846; MHB, 2–5 × 10^5 CFU/mL, 16–18 h, 37 °C
Method: as §1

[9] = system: Escherichia coli (ATCC 11775); format: cell-based
Method: as §1

[10] = system: MRSA ATCC 33591; test: microbe, parasite or virus in culture; format: cell-based, Staphylococcus aureus
Method: An initial inoculum of mid-log phase 10^7 CFU/mL was used and MIC experiment was performed as described earlier. For serum/plasma stability assay a method as described previously was used with slight modifications. Briefly, 50 μL MHB medium containing desired concentration of test peptidomimetics was incubated with 50 µL mice plasma/fetal bovine serum for 3 h at 37 °C. After incubation, a 10 μL aliquot was taken out for MIC determination as described above. For the experiment, mid-log phase 2–5 × 10^5 CFU/mL were used as initial inoculum. For the growth control wells, an equivalent amount of plasma/FBS in the medium was also added to evaluate their effect on the viability of cells. A slight decrease in OD600 of cells incubated with mice plasma was observed compared to untreated growth control in MHB alone. The experiments were repeated on two different days and reproducible MIC values were observed.

[11] = system: 3T3 murine fibroblast cell line; test: Cytotoxicity, MTT assay; format: cell-based; conditions: 3T3 fibroblasts, 2 h, DMEM with 10% FBS, mean ± S.D., triplicate on two days
Method: For the active peptidomimetics cytotoxicity was measured against 3T3 murine fibroblast cell line using a previously defined MTT assay with slight modifications. Briefly, the cells were grown to over 75% confluence in DMEM supplemented with 10% FBS and antibiotics (1 × Anti-anti) at 37 °C in 5% CO2 atmosphere. The cells were transferred to a 24-well plate to a final count of ~8 × 10^4 cells/well. […] The plates were kept for 2 h at 37 °C in 5% CO2 incubator. After 2 h, the cells were washed once with 1 mL PBS. Then 1 mL MTT (0.1 mg/mL) was added to each well in dark and incubated for 2 h at 37 °C in 5% CO2. After 2 h, 200 μL of DMSO was added to the wells to dissolve the formazan crystals formed and the plates were kept for 5 min in the incubator at 37 °C. 100 μL of the suspension was transferred to a fresh 96-well plate and absorbance (Asample) was measured at 570 nm in an ELISA plate reader (Molecular Devices, Sunnyvale, CA, USA). The wells with DMSO treatment were set as untreated control (Auntreated control). The assay was done in triplicate on two different days. The % survival was calculated using the following equation:2 %survival=[Asample/Auntreatedcontrol]×100

[12] = system: MRSA (ATCC 43300); test: microbe, parasite or virus in culture; format: cell-based, Staphylococcus aureus; conditions: MHB, 2–5 × 10^5 CFU/mL, 16–18 h, 37 °C, OD600
Method: as §1

[13] = system: Methicillin-resistant S. epidermidis (ATCC 35984); test: microbe, parasite or virus in culture; format: cell-based, Staphylococcus epidermidis; conditions: MRSE ATCC 35984; MHB, 2–5 × 10^5 CFU/mL, 16–18 h, 37 °C, OD600
Method: as §1

[14] = MRSA ATCC 33591, initial inoculum 10^7 CFU/mL, mid-log phase

Row | SMILES | Minimum inhibitory concentration, MIC [1] [µg/mL] | % hemolysis [2] [%] | Minimum inhibitory concentration, MIC [3] [µg/mL] | Minimum inhibitory concentration, MIC [4] [µg/mL] | Minimum inhibitory concentration, MIC [5] [µg/mL] | Minimum inhibitory concentration, MIC [6] [µg/mL] | Minimum inhibitory concentration, MIC [7] [µg/mL] | Minimum inhibitory concentration, MIC [8] [µg/mL] | MIC [9] [µg/mL] | Minimum inhibitory concentration, MIC ([10]; ATCC 33591, 3 h) [µg/mL] | Minimum inhibitory concentration, MIC [10, 14] [µg/mL] | % viable cells relative to untreated control (MTT) ([11]; 10× MIC) | % viable cells relative to untreated control (MTT) ([11]; 20 × MIC) | Minimum inhibitory concentration, MIC [12] [µg/mL] | Minimum inhibitory concentration, MIC [13] [µg/mL] | Minimum inhibitory concentration, MIC ([10]; MRSA ATCC 33591, after 3 h pre-incubation at 37 °C with mice plasma (50%, v/v), inoculum 2–5 × 10^5 CFU/mL, repeated on two days) [µg/mL]
1 | N=C(N)NCCC[C@H](NC(=O)C(Cc1c(F)c(F)c(F)c(F)c1F)NC(=O)[C@H](CCCNC(=N)N)NC(=O)[C@@H](N)Cc1c[nH]c2ccccc12)C(=O)N[C@@H](Cc1c[nH]c2ccccc12)C(N)=O (stereo partly drawn) [S-4, Trp-Arg-(F5-Phe propionic acid)-Arg-Trp-CONH2] (HELM PEPTIDE1{W.R.[O=C(C(Cc1c(F)c(F)c(F)c(F)c1F)N[*:1])[*:2]].R.W.[am]}$$$$V2.0) | 45.4 (≈ 48.4 µM) | < 5 | 45.4 (≈ 48.4 µM) | 45.4 (≈ 48.4 µM) | 45.4 (≈ 48.4 µM) | 45.4 (≈ 48.4 µM) |  |  |  |  |  |  |  |  |  | 
2 | N=C(N)NCCC[C@H](NC(=O)CCCCCCCCCCCNC(=O)[C@H](CCCNC(=N)N)NC(=O)[C@@H](N)Cc1c[nH]c2ccccc12)C(=O)N[C@@H](Cc1c[nH]c2ccccc12)C(N)=O [S-6, Trp-Arg-(12-ADO)-Arg-Trp-CONH2] (HELM PEPTIDE1{W.R.[O=C(CCCCCCCCCCCN[*:1])[*:2]].R.W.[am]}$$$$V2.0) | 11.3 (≈ 12.6 µM) |  | 11.3 (≈ 12.6 µM) |  | 11.3 (≈ 12.6 µM) | 11.3 (≈ 12.6 µM) | 11.3 (≈ 12.6 µM) | 11.3 (≈ 12.6 µM) | > 45.4 | 22.7 (≈ 25.2 µM) | 11.3 (≈ 12.6 µM) | no decrease in cell viability | no decrease in cell viability | 11.3 (≈ 12.6 µM) | 11.3 (≈ 12.6 µM) | 
3 | N=C(N)NCCC[C@H](NC(=O)[C@H](Cc1c[nH]c2ccccc12)NC(=O)CCCCCCCCCCCNC(=O)[C@H](Cc1c[nH]c2ccccc12)NC(=O)[C@@H](N)CCCNC(=N)N)C(N)=O [S-7, Arg-Trp-(12-ADO)-Trp-Arg-CONH2] (HELM PEPTIDE1{R.W.[O=C(CCCCCCCCCCCN[*:1])[*:2]].W.R.[am]}$$$$V2.0) | 11.3 (≈ 12.6 µM) |  | 11.3 (≈ 12.6 µM) |  | 11.3 (≈ 12.6 µM) | 11.3 (≈ 12.6 µM) | 11.3 (≈ 12.6 µM) | 5.6 (≈ 6.23 µM) | > 45.4 | 22.7 (≈ 25.2 µM) | 11.3 (≈ 12.6 µM) | no decrease in cell viability | no decrease in cell viability | 11.3 (≈ 12.6 µM) | 11.3 (≈ 12.6 µM) | >45.4
